Measured values reported in ChEMBL document CHEMBL1201862, “PubChem BioAssay data set” (2004).
Activity calls are given as the source filed them.

Experiments:
[1] = molecular target: T1, Lytic switch protein BZLF1 (Epstein-Barr virus (strain B95-8) (HHV-4) (Human herpesvirus 4), UniProt P03206); experiment: inhibition of BZLF1 ZTA DNA binding – biochemical, fluorescence polarization, Epstein-Barr virus, 1536-well, counter-screen for EBNA-1 inhibitor project, dose response (AID 2377); parameters: species or system human gammaherpesvirus 4;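 also: fluorescence polarization of Cy5-labelled ZRE DNA probe bound by purified Zta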
T1 sequence (P03206 whole entry): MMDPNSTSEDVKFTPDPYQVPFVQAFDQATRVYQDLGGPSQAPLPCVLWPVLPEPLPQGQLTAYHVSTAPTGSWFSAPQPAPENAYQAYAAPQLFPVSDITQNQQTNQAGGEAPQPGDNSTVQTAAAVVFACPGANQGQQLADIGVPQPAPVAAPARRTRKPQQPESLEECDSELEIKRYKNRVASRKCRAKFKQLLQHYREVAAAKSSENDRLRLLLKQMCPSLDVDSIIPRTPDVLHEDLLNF

[2] = molecular target: T2, Epstein-Barr nuclear antigen 1 (Epstein-Barr virus (strain B95-8) (HHV-4) (Human herpesvirus 4), UniProt P03211); experiment: inhibition of EBV nuclear antigen 1 DNA binding – biochemical, fluorescence polarization, 1536-well, dose response (AID 2381); parameters: species or system human gammaherpesvirus 4;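 also: fluorescence polarization of a Cy5 DNA probe bound by EBNA-1 protein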
T2 sequence (P03211 whole entry): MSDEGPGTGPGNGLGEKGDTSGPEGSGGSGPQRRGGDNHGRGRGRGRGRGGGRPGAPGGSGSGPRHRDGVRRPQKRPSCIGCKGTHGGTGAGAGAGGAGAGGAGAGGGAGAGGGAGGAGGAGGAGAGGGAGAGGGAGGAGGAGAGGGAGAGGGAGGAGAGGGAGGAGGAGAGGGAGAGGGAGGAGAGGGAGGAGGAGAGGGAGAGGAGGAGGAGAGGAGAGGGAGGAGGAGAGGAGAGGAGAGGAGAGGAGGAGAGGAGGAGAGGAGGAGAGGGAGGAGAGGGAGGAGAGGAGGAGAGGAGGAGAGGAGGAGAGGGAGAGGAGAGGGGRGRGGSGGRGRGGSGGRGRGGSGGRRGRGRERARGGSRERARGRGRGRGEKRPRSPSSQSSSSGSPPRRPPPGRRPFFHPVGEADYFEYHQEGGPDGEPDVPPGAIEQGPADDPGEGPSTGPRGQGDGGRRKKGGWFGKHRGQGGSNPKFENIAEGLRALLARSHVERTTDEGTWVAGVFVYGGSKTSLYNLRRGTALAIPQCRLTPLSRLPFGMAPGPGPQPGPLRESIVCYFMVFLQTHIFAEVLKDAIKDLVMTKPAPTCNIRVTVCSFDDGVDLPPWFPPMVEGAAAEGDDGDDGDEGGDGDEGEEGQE

[3] = molecular target: Melanin-concentrating hormone receptor 1 (Homo sapiens, UniProt Q99705); experiment: Late-stage fluorescence-based counterscreen for antagonists of the G-protein coupled receptor 7 (GPR7): cell-based dose response assay to identify antagonists of the melanin-concentrating hormone receptor 1 (MCHR1). [Related pubchem assays (depositor defined):AID1861, AID1880, AID1952, AID2148, AID2251, AID2257, AID485339]; type: functional;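 also: stimulated with 30 nM MCH peptide agonist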
Melanin-concentrating hormone receptor 1, sequence (Q99705 whole entry): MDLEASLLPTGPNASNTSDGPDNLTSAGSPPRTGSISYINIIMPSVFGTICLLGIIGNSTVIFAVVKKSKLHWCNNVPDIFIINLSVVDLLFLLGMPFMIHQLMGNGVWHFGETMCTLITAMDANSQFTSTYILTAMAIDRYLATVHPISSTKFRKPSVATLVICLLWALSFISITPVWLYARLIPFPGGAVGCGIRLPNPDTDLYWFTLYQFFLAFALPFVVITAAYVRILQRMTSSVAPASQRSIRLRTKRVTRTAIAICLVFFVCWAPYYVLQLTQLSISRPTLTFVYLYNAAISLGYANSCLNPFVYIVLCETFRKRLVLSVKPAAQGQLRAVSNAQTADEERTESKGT

[4] = molecular target: T3, Tyrosine-protein phosphatase non-receptor type 7 (Homo sapiens, UniProt P35236); type: functional
T3 sequence (P35236 whole entry): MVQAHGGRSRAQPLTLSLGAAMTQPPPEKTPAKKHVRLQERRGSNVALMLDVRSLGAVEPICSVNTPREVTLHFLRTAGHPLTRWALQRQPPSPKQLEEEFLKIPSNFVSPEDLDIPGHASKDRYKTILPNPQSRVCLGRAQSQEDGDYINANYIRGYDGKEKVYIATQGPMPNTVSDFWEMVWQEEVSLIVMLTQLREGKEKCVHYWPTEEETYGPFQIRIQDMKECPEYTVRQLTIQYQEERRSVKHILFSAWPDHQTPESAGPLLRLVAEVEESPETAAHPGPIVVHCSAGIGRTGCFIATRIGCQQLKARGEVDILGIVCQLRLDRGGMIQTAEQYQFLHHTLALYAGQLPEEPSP

[5] = molecular target: T4, Dual specificity protein phosphatase 6 (Rattus norvegicus, UniProt Q64346)
T4 sequence (Q64346 whole entry): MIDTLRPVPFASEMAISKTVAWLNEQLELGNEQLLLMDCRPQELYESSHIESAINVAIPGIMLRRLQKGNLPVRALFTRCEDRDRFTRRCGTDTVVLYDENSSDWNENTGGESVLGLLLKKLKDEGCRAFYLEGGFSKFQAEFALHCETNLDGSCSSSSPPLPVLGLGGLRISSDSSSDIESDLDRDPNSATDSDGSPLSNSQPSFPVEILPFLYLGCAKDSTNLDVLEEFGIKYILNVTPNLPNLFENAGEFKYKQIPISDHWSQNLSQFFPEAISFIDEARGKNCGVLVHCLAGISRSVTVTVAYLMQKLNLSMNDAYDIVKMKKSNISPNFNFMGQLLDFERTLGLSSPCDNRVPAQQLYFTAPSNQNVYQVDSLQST

[6] = molecular target: Glyceraldehyde-3-phosphate dehydrogenase (Homo sapiens, UniProt P04406)
Glyceraldehyde-3-phosphate dehydrogenase, sequence (P04406 whole entry): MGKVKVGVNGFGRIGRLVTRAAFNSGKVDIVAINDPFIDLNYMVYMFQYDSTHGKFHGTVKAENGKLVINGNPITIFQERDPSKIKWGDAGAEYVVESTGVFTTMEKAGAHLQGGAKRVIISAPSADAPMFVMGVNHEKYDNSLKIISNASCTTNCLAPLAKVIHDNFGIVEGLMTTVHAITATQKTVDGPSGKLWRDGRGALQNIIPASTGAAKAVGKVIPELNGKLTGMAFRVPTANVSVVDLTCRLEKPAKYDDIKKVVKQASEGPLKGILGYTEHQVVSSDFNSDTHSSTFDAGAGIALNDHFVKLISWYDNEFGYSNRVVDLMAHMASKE

[7] = molecular target: T4, Dual specificity protein phosphatase 6; type: functional
[8] = molecular target: Polyadenylate-binding protein 1 (Homo sapiens, UniProt P11940); experiment: blockers of PABP interaction with poly(A) – biochemical, fluorescence polarization, […] (AID 2014)
Polyadenylate-binding protein 1, sequence (P11940 whole entry): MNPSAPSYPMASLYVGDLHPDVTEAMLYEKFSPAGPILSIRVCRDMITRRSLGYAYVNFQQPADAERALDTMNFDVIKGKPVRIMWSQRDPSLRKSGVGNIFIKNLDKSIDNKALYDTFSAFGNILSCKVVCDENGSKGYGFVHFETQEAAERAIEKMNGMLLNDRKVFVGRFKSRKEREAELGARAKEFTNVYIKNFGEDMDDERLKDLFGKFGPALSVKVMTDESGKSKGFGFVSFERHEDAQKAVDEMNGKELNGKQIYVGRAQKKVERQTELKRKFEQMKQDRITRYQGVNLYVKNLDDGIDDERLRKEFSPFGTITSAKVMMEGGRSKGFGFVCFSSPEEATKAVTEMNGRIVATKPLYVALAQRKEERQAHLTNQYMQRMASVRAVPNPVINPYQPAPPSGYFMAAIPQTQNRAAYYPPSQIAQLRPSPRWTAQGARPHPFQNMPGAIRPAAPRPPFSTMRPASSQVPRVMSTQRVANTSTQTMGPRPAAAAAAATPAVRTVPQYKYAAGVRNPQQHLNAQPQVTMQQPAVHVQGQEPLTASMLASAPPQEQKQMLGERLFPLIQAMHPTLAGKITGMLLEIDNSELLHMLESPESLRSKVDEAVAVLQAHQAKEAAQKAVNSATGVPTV

[9] = molecular target: Eukaryotic translation initiation factor 4H (Homo sapiens, UniProt Q15056); experiment: eIF4H binding inhibition – biochemical, uHTS, fluorescence polarization, translation initiation inhibitor project, primary screen (AID 2012)
[10] = molecular target: Luciferin 4-monooxygenase (Photinus pyralis, UniProt P08659); experiment: Counter Screen for Luciferase-based Assay Positives. [Related pubchem assays: 620, 618, 411 ]
Luciferin 4-monooxygenase, sequence (P08659 whole entry): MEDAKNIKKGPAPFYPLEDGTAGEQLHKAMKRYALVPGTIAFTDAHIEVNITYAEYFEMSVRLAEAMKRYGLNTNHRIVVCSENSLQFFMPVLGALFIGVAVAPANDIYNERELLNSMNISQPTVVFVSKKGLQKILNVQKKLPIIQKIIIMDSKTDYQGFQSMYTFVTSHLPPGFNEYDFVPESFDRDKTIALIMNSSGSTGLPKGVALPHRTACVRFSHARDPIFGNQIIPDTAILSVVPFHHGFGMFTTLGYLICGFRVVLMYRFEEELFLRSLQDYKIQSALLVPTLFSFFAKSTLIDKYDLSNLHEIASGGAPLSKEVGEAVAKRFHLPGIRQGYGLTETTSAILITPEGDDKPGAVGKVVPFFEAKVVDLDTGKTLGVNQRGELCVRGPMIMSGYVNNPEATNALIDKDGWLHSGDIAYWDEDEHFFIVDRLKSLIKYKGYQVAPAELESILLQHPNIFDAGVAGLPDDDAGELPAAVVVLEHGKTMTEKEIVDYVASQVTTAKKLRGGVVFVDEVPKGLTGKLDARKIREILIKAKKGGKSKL

[11] = A549 cell cytotoxicity, dose response, cytotoxicity control, plate reader, cherry-pick, antagonist series (AID 743412); type: functional, cell-based
[12] = molecular target: T5, Heat shock factor protein 1 (Mus musculus, UniProt P38532); experiment: decrease of HSF1-responsive luciferase luminescence – cell-based, NIH3T3, dose retest, confirmation (AID 2382); type: functional;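 also: NIH3T3 fibroblasts with HSF1-driven luciferase reporter stressed by proteasome inhibitor MG132; luminescence from HSF1-driven luciferase expression after 8 hours of MG132 stress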
T5 sequence (P38532 whole entry): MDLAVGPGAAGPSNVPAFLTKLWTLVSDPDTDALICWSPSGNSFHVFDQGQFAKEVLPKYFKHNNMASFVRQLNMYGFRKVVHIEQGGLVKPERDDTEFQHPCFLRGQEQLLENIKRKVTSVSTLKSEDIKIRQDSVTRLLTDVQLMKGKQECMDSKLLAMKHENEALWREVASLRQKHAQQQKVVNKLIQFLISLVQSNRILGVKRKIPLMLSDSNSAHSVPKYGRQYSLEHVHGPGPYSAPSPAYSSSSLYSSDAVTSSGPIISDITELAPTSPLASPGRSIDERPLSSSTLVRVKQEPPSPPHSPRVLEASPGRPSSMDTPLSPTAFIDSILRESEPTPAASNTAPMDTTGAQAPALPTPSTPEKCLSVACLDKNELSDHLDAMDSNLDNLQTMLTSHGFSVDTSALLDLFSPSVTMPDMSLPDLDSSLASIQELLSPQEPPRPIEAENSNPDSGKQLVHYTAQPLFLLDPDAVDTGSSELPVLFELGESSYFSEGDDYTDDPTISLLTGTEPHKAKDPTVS

[13] = toxicity toward HepG2 liver cells – cell-based, plate reader, cherry-pick, antagonist series, cytotoxicity control, dose response (AID 743416); type: functional
[14] = blockade of melanocortin 4 receptor signaling – cell-based, plate reader, cherry pick, counter-screen for LGR2 antagonist project, dose response (AID 743444); type: functional;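 also: transfected HEK 293 cells stimulated with alpha-MSH peptide; potency of inhibitors of the alpha-MSH evoked signal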
HT-1080 = experiment: HT1080 cell viability loss – fluorescence readout (AID 620); type: functional, cell-based; conditions: Homo sapiens
[15] = blockers of bursicon-stimulated LGR2 cAMP reporter – cell-based, HEK293, CRE-luciferase reporter, cherry pick, set 2, dose response (AID 743343); type: functional;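 also: transfected cells were stimulated with diluted bursicon conditioned medium after compound addition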
[16] = viability of PTEN-deleted HCT116 cells – cell-based, HCT116 PTEN knockout, dose response (AID 1047); type: functional;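 also: HCT116 colon tumor cells with PTEN knocked out; cells exposed to compound for 60 hours before readout; potency for loss of cell viability measured by luminescence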
Nonstructural protein 1 = Nonstructural protein 1 (Influenza A virus, UniProt Q194T2); type: functional, Influenza A virus (A/California/07/2009(H1N1))
Nonstructural protein 1, sequence (Q194T2 whole entry): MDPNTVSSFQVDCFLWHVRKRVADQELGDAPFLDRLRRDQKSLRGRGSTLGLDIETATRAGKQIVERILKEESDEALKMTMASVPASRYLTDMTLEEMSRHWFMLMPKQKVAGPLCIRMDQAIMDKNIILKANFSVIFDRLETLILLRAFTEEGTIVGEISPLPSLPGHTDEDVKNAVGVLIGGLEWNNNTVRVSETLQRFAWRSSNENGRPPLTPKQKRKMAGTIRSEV

[17] = molecular target: T6, Microphthalmia-associated transcription factor (Homo sapiens, UniProt O75030); experiment: reducers of TRPM1 reporter luminescence, concentration series – cell-based, SK-MEL-5, cherry-picked, set 3, MITF inhibitor project, dose response (AID 493073); type: functional;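 also: SK-MEL-5 melanoma cells with luciferase driven by the MITF target TRPM1 promoter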
T6 sequence (O75030 whole entry): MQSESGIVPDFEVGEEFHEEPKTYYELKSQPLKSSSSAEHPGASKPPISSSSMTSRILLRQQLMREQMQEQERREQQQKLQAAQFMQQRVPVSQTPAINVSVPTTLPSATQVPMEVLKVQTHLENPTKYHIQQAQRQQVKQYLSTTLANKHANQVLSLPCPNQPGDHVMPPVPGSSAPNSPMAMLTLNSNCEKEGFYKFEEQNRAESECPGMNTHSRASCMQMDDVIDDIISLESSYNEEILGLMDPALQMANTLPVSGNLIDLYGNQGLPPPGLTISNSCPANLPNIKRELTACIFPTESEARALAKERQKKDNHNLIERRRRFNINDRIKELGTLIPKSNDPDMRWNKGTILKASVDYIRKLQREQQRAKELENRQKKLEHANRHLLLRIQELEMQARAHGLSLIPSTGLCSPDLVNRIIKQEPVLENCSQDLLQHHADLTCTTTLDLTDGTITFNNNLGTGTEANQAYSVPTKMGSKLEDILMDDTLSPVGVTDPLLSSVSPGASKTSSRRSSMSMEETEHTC

[18] = viability of HCT116 lacking mutant beta-catenin – cell-based, human colon tumor, dose response (AID 1045); type: functional;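 also: HCT116 colon tumor cells with beta catenin knocked out; cells exposed to compound for 60 hours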

O=C(CNC(=O)c1ccc(-c2ccccc2)cc1)OCc1c(F)cccc1Cl
IC50 [1]: > 111 µM (not active)
IC50 [2]: 11.7 µM (not active)

O=c1[nH]c(CN2CCN(S(=O)(=O)c3ccc4ccccc4c3)CC2)nc2ccccc12
IC50 [1]: > 111 µM (not active)
IC50 [2]: 5.56 µM (active)

COc1ccc(Oc2c(-c3ccco3)cnn(-c3ccc(C)cc3)c2=O)cc1
IC50 [3]: 13.5 µM (inactive)

O=C(O)C1Nc2c(cccc2S(=O)(=O)c2ccccc2)C2C=CCC12 (stereo not given)
IC50 [4]: 11 µM (active)
IC50 [5]: 52.2 µM (active)
IC50 [6]: 56.4 µM (active)
IC50 [7]: 58.7 µM (active)

Cc1ccccc1SCC(=O)N1CCN(c2ccc(C(F)(F)F)cn2)CC1
IC50 [8]: > 100 µM (inactive)
IC50 [9]: > 100 µM (inactive)

Cc1oc(-c2ccc3c(c2)OCCO3)cc1C(=O)O
EC50 [10]: 1.25 µM (active)
AC50 [11]: > 52 µM (inactive)
EC50 [12]: 0.312 µM (active)
AC50 [13]: > 52 µM (inactive)
AC50 [14]: 7.49 µM (active)
EC50 (HT-1080): > 50 µM (not active)
AC50 [15]: 7.05 µM (active)

Cc1cc(O)c2c(c1)C1C=CCC1C(C(=O)O)N2 (stereo not given)
IC50 [4]: 2.41 µM (active)
IC50 [5]: > 100 µM (inactive)
IC50 [6]: > 100 µM (not active)
IC50 [7]: > 100 µM (inactive)

COc1ccc(-n2ncc3c(NC(C)C)ncnc32)cc1
EC50 [10]: < 0.2 µM (active)
EC50 (HT-1080): > 50 µM (not active)

CN(C)c1ccc(NC(=S)c2ccccn2)cc1
EC50 [10]: 0.52 µM (active)
EC50 [16]: 92.2 µM (active)
IC50 (Nonstructural protein 1): 28.3 µM (active)
AC50 [17]: 2.84 µM (active)
EC50 [18]: 136 µM (active)
EC50 (HT-1080): > 50 µM (not active)
